Consider three molecules from US20110118288A1, “PHARMACEUTICAL COMPOSITION FOR TREATING HYPERTENSION AND METABOLIC SYNDROME AND USE THEREOF” (priority 2008, published 2011).

The test system of test [1] is spontaneously hypertensive rats. The test can be described thus: Tail arterial blood pressure of conscious spontaneously hypertensive rats. Type of test: in vivo, rat. As to conditions: for blood pressure, after treatment, eighth week / blood pressure, after treatment, fifth week / blood pressure, after treatment, first week / blood pressure, after treatment, third week: SHR, intragastric once every day, 2-5 h after administration; for blood pressure, before treatment: spontaneously hypertensive rats, baseline before treatment, n = 11. The method, then:
Model control group: intragastric administration of same volume of physiological saline; P group: 0.5 mg/(kg·d) of pioglitazone; L group: 5 mg/(kg·d) of losartan; R group: 0.5 mg/(kg·d) of rosuvastatin calcium; L+R group: 5 mg/(kg·d) of losartan+0.5 mg/(kg·d) of rosuvastatin calcium; P+R group: 0.5 mg/(kg·d) of pioglitazone+0.5 mg/(kg·d) of rosuvastatin calcium; L+P group: 5 mg/(kg·d) of losartan+0.5 mg/(kg·d) of pioglitazone; […] Each group was given intragastric administration once every day for ten weeks. During the experiment, the diet, survival status and behaviors of the animals were recorded, and the animals were weighed once every day and the doses of administration were adjusted according to the body weights. Animals were sacrificed after ten weeks, and their hearts were taken out to determine the weights of left ventricles and calculate left ventricular indexes. Temperature was controlled between 18° C. and 22° C., humidity was controlled between 45% and 65%, and indoor natural light was used. Tail arterial blood pressure of a conscious rat was measured with Intelligent Non-invasive Blood Pressure Monitor BP-2006A (provided by Beijing Softron Co., Ltd.). Blood pressures were measured five times between two and five hours after intragastric administration in the first week, the third week, the fifth week and the eighth week, respectively. The average value of the blood pressures was used as the blood pressure of the sample.

The test system is the same in test [2]. Description: Cardiac hypertrophy (left ventricular weight/body weight) in spontaneously hypertensive rats. Type of test: in vivo, rat. As to conditions: SHR, after ten weeks of intragastric administration once every day. How it is done:
Each group was given intragastric administration once every day for ten weeks. During the experiment, the diet, survival status and behaviors of the animals were recorded, and the animals were weighed once every day and the doses of administration were adjusted according to the body weights. Animals were sacrificed after ten weeks, and their hearts were taken out to determine the weights of left ventricles and calculate left ventricular indexes. After being sacrificed with 10% potassium chloride (2 mmol/L, 1 ml/rat), the rats were weighed. Heart was taken out and aortas and connective tissues outside of the heart were removed. The heart was cleaned by washing, dried with a filter paper, and weighed. The left ventricular was weighed after the atria were removed, and a ratio of left ventricular weight to body weight was calculated.

For test [3] the test system is unchanged. The test can be described thus: Urinary microalbumin (bromophenol blue absorbance) in spontaneously hypertensive rats. Conditions: SHR, high sugar and high fat diets, intragastric once every day, twelve-hour overnight urine; time point not given in table. Type of test: in vivo, rat. The method, then: Model control group: intragastric administration of same volume of physiological saline; […] L group: 5 mg/(kg·d) of losartan; R group: 1 mg/(kg·d) of rosuvastatin group; L+R group: 5 mg/(kg·d) of losartan+1 mg/(kg·d) of rosuvastatin calcium; P+R group: 1.5 mg/(kg·d) of pioglitazone+1 mg/(kg·d) of rosuvastatin calcium; L+P group: 5 mg/(kg·d) of losartan+1.5 mg/(kg·d) of pioglitazone; […] Each group was given intragastric administration once every day and fed with high sugar and high fat diets for six months. During the experiment, the diet, survival status and behaviors of the animals were recorded, and the animals were weighed once every day and the doses of administration were adjusted according to the body weights. 1. 10% (v/v) glacial acetic acid solution (pH 2.8). 2. 0.303 mol/L glycine-glacial acetic acid buffer solution (pH 3.0): 22.72 g of glycine was weighed and diluted with 10% glacial acetic acid solution to 1000 ml, to which 100 mg of NaN3 was added. The buffer solution can be kept for one year at room temperature after sealed. 3. Bromophenol blue (1.924 mmol/L) stock solution: 257.36 mg of BPB was precisely weighed and dissolved to 200 ml with absolute ethanol. The stock solution can be kept for one year in a refrigerator at 4° C. 4. Bromophenol blue (0.231 mmol/L) developing agent: to 60 ml of BPB stock solution, 2.5 ml Triton X-100 was added, and then diluted to 500 ml with glycine-glacial acetic acid buffer solution. The developing agent can be kept for one year at room temperature after sealed. Collection and detection of samples: rats were taken out and fed in a metabolic cage at the fourth week, the eighth week, the twelfth week and the sixteenth week, respectively, and twelve-hour overnight urinary collection was performed. Urinary amounts were precisely recorded. 4 ml of urine was sampled, treated with sodium azide, and centrifuged at 2000 r/min for 10 min.

For test [4] the test system is unchanged. Description: Carotid intima-media thickness in spontaneously hypertensive rats. Type of test: in vivo, rat. As to conditions: SHR carotid artery, high sugar and high fat diets, intragastric once every day for six months. The method, then: Each group was given intragastric administration once every day and fed with high sugar and high fat diets for six months. During the experiment, the diet, survival status and behaviors of the animals were recorded, and the animals were weighed once every day and the doses of administration were adjusted according to the body weights. After the animal was anesthetized and fixed, Even's blue (60 mg/kg) dye was injected via a femoral artery. After 30 minutes, myocardial perfusion was performed with 0.9% physiological saline as a perfusate at a perfusion pressure of 13.3 kPa until the effluent became clear. Then, 4% paraformaldehyde in physiological saline was perfused for 10 minutes for in situ fixation (the perfusion pressure was the same as above). The section of Even's blue-stained carotid artery was taken and further fixed with formalin solution, and three parts, i.e. the front, the middle and the rear parts, respectively, were sampled and embedded in paraffin, and then sliced discontinuously to obtain 8 to 10 layers, which were stained with HE. Three vascular sections were randomly selected and input into a computer image processing system so as to perform a computerized image measurement, thereby calculating the intima-media thickness.

Test [5] relates to metabolic syndrome patients. Description: Treatment of patients suffered from metabolic syndrome (FBG, FINS, HbAlC, TC/HDLC, Fg). Type of test: in vivo, human. An excerpt:
Sixth-four metabolic syndrome patients were selected from those received treatment in Linyi People's Hospital from March 2007 to June 2008, and randomly divided into a control group and an experimental group. Control group: twenty-one males and eleven females, whose ages were between 61 and 72 and whose body mass indexes (BMI) were between 26 and 30; Experimental group: nineteen males and thirteen females, whose ages were between 62 and 70 and whose body mass indexes (BMI) were between 25.5 and 31; Before the treatment, all patients were subjected to blood lipids (including total cholesterol (TC), high-density lipid cholesterol (HDLC)) analysis, and detection of glycated hemoglobin (HbAlC), fasting blood glucose (FBG), fasting insulin (FINS) and fibrinogen (Fg). […] After eight weeks of continuous treatment, all of the above parameters were re-determined, in which blood glucose was determined with hexokinase method, blood lipid was determined with esterase method, fibrinogen was determined with coagulation method and chromogenic substrate assay, HbAlC was determined with chromatography, and fasting insulin was determined with chemiluminescence immunoassay. Statistical analysis: SPSS software was employed, and test of significance was performed by using a paired sample t test.

[6] abbreviates: once every day, after eight weeks.

Each structure is given as a SMILES string.

As for `CCCCc1nc(Cl)c(CO)n1Cc1ccc(-c2ccccc2-c2nn[nH]n2)cc1` [L group, losartan], in test [1], the “blood pressure, after treatment, eighth week” value (“blood pressure … eighth week” below) worked out at 156 mmHg; the “blood pressure, after treatment, fifth week” value (“blood pressure … fifth week” below) is listed as 155 mmHg; the “blood pressure, after treatment, first week” value (shortened to “blood pressure … first week”) amounted to 168 mmHg; the “blood pressure, after treatment, third week” value (“blood pressure … third week” for short) turned out to be 162 mmHg. Also, the “blood pressure, before treatment” value in test [1] is on record as 171 mmHg. In test [2], the Left ventricular weight is given as 0.873 g and the “Left ventricular weight/body weight (×10^-3)” value is on record as 2.90 ×10^-3. Further, the “urinary microalbumin, Absorbance A (600 nm)” value (“urinary microalbumin” below) in test [3] was found to be 0.6132. Besides, in test [4], the Maximum intima thickness was found to be 0.0926 mm and the “Ratio of intima to media thickness” value was found to be 1.8055.

Turning to `CCc1ccc(CCOc2ccc(CC3SC(=O)NC3=O)cc2)nc1` (stereo not shown) [P group, pioglitazone], in test [1], the “blood pressure … eighth week” value is given as 172 mmHg; the “blood pressure … fifth week” value is recorded as 171 mmHg; the “blood pressure … first week” value came out at 172 mmHg; the “blood pressure … third week” value worked out at 168 mmHg. Moreover, the “blood pressure, before treatment” value in test [1] is 172 mmHg. Further, in test [2], the Left ventricular weight was determined as 0.986 g and the “Left ventricular weight/body weight (×10^-3)” value is 3.30 ×10^-3. The “urinary microalbumin” value in test [3] is recorded as 0.5714. In addition, in test [4], the Maximum intima thickness was 0.0958 mm and the “Ratio of intima to media thickness” value was determined as 1.8325. Moreover, in test [5] (before treatment), the “FBG, before treatment” value turned out to be 7.11 mmol/L; the “FINS, before treatment” value is reported as 31.5 mlU/L; the “Fg, before treatment” value came out at 426.3 mg/dL; the “HbAlC, before treatment” value turned out to be 6.92%. Also, the TC/HDLC, before treatment in test [5] (before treatment) is 4.25. In test [5] (setting [6]), the “FBG, after treatment” value is 6.69 mmol/L; the “FINS, after treatment” value is listed as 24.36 mlU/L; the “Fg, after treatment” value was found to be 390.8 mg/dL; the “HbAlC, after treatment” value stood at 6.33%. The molecule also came in with a TC/HDLC, after treatment in test [5] (setting [6]) of 3.84.

Turning to `CC(C)c1nc(N(C)S(C)(=O)=O)nc(-c2ccc(F)cc2)c1/C=C/[C@@H](O)C[C@@H](O)CC(=O)O` [R group, rosuvastatin calcium], in test [1], the “blood pressure … eighth week” value came out at 169 mmHg; the “blood pressure … fifth week” value was determined as 170 mmHg; the “blood pressure … first week” value stood at 166 mmHg; the “blood pressure … third week” value was found to be 168 mmHg. Besides, the “blood pressure, before treatment” value in test [1] was 168 mmHg. Besides, in test [2], the Left ventricular weight is on record as 0.960 g and the “Left ventricular weight/body weight (×10^-3)” value is given as 3.16 ×10^-3. In addition, the “urinary microalbumin” value in test [3] worked out at 0.5672. For the same molecule, in test [4], the Maximum intima thickness is reported as 0.1153 mm and the “Ratio of intima to media thickness” value is 2.0754.
